Measurements taken from patent US20020169111A1, “Reversal of multidrug resistance in human colon carcinoma cells” (American Cyanamid Comany, priority 1998, published 2002).
Like-named read-outs stand apart in the source and are kept apart here.

Experiments:
S1-M1-3.2 cells = conditions: for Per Cent Survival with 3.2 μM mitoxantrone / Per Cent Survival Alone / Difference Score: S1-M1-3.2 cells; for Per Cent Survival Alone: 3 days; for Difference Score: survival alone minus survival with 3.2 μM mitoxantrone
Summary of the method: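 Cells grown in medium with 5% FBS received reversal agents at 0.1-80 μM (triplicate per dose), with or without the antitumor agent, plus reversal agent-only wells; survival by SRB assay. Difference Score = % survival with drug alone minus % survival with drug plus antitumor agent.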

P-gp expressing cells = conditions: P-gp reversal; cited from earlier work
S1-B1-20 cells = assay: Reversal of resistance in P-gp expressing cells, alone or with 21 μM bisantrene; type: cell-based, human; design: Difference Score: unit not given here; conditions: for Per Cent Survival with 21 μM bisantrene / Per Cent Survival Alone / Difference Score: S1-B1-20 cells; for Difference Score: survival alone minus survival with 21 μM bisantrene
Description: To determine the specificity of FTC for non P-gp multidrug resistance, FTC was tested on S1-B1-20 cells which were selected for resistance to bisantrene and which express high levels of P-gp (Table 9)(Zhang, et al, Oncol. Res. 6291-301 (1994)). […] The 21 μM concentration of bisantrene is not inhibitory to the growth of the cells. Values shown are mean ± standard deviation from triplicate test wells.

COc1ccc(C(C#N)(CCCCCN2CCc3cc(OC)c(OC)cc3C2)Sc2ccc(C)cc2)cc1OC (stereo not drawn) [α-(3,4-dimethoxyphenyl)-3,4-dihydro-6,7-dimethoxy-α-[(4-methylphenyl)thio]-2(1H)-isoquinolineheptanenitrile, reference compound]
Per Cent Survival with 3.2 μM mitoxantrone (S1-M1-3.2 cells; drug 0.1 μM): 98 ± 2 Per Cent | Per Cent Survival Alone (S1-M1-3.2 cells; drug 0.1 μM alone): 98 ± 2 Per Cent | Difference Score (S1-M1-3.2 cells; drug 0.1 μM): 0 | Per Cent Survival with 3.2 μM mitoxantrone (S1-M1-3.2 cells; drug 0.5 μM): 98 ± 0 Per Cent | Per Cent Survival Alone (S1-M1-3.2 cells; drug 0.5 μM alone): 100 ± 0 Per Cent | Difference Score (S1-M1-3.2 cells; drug 0.5 μM): 2 | Per Cent Survival with 3.2 μM mitoxantrone (S1-M1-3.2 cells; drug 1 μM): 99 ± 2 Per Cent | Per Cent Survival Alone (S1-M1-3.2 cells; drug 1 μM alone): 101 ± 1 Per Cent | Difference Score (S1-M1-3.2 cells; drug 1 μM): 2 | Per Cent Survival with 3.2 μM mitoxantrone (S1-M1-3.2 cells; drug 5 μM): 63 ± 8 Per Cent | Per Cent Survival Alone (S1-M1-3.2 cells; drug 5 μM alone): 78 ± 8 Per Cent | Difference Score (S1-M1-3.2 cells; drug 5 μM): 15 | Per Cent Survival with 3.2 μM mitoxantrone (S1-M1-3.2 cells; drug 10 μM): 36 ± 11 Per Cent | Per Cent Survival Alone (S1-M1-3.2 cells; drug 10 μM alone): 39 ± 18 Per Cent | Difference Score (S1-M1-3.2 cells; drug 10 μM): 3 | Per Cent Survival with 3.2 μM mitoxantrone (S1-M1-3.2 cells; drug 20 μM): 21 ± 10 Per Cent | Per Cent Survival Alone (S1-M1-3.2 cells; drug 20 μM alone): 21 ± 13 Per Cent | Difference Score (S1-M1-3.2 cells; drug 20 μM): 0 | Per Cent Survival with 3.2 μM mitoxantrone (S1-M1-3.2 cells; drug 40 μM): 16 ± 4 Per Cent | Per Cent Survival Alone (S1-M1-3.2 cells; drug 40 μM alone): 16 ± 5 Per Cent | Difference Score (S1-M1-3.2 cells; drug 40 μM): 0 | Per Cent Survival with 3.2 μM mitoxantrone (S1-M1-3.2 cells; drug 80 μM): 13 ± 2 Per Cent | Per Cent Survival Alone (S1-M1-3.2 cells; drug 80 μM alone): 13 ± 1 Per Cent | Difference Score (S1-M1-3.2 cells; drug 80 μM): 0 | reversal activity in S1-M1-3.2 cells (in words) (S1-M1-3.2 cells; with mitoxantrone): not reversed | potency relative to verapamil (P-gp expressing cells): at least 10 fold | Per Cent Survival with 21 μM bisantrene (S1-B1-20 cells; drug 0.1 μM): 92 ± 1 Per Cent | Per Cent Survival Alone (S1-B1-20 cells; drug 0.1 μM alone): 99 ± 4 Per Cent | Difference Score (S1-B1-20 cells; drug 0.1 μM): 7 | Per Cent Survival with 21 μM bisantrene (S1-B1-20 cells; drug 0.5 μM): 10 ± 0 Per Cent | Per Cent Survival Alone (S1-B1-20 cells; drug 0.5 μM alone): 97 ± 1 Per Cent | Difference Score (S1-B1-20 cells; drug 0.5 μM): 87 | Per Cent Survival with 21 μM bisantrene (S1-B1-20 cells; drug 1 μM): 4 ± 0 Per Cent | Per Cent Survival Alone (S1-B1-20 cells; drug 1 μM alone): 94 ± 2 Per Cent | Difference Score (S1-B1-20 cells; drug 1 μM): 90 | Per Cent Survival with 21 μM bisantrene (S1-B1-20 cells; drug 5 μM): 4 ± 0 Per Cent | Per Cent Survival Alone (S1-B1-20 cells; drug 5 μM alone): 90 ± 1 Per Cent | Difference Score (S1-B1-20 cells; drug 5 μM): 86 | Per Cent Survival with 21 μM bisantrene (S1-B1-20 cells; drug 10 μM): 4 ± 0 Per Cent | Per Cent Survival Alone (S1-B1-20 cells; drug 10 μM alone): 50 ± 1 Per Cent | Difference Score (S1-B1-20 cells; drug 10 μM): 46 | Per Cent Survival with 21 μM bisantrene (S1-B1-20 cells; drug 20 μM): 4 ± 0 Per Cent | Per Cent Survival Alone (S1-B1-20 cells; drug 20 μM alone): 14 ± 1 Per Cent | Difference Score (S1-B1-20 cells; drug 20 μM): 10 | Per Cent Survival with 21 μM bisantrene (S1-B1-20 cells; drug 40 μM): 4 ± 0 Per Cent | Per Cent Survival Alone (S1-B1-20 cells; drug 40 μM alone): 4 ± 0 Per Cent | Difference Score (S1-B1-20 cells; drug 40 μM): 0 | Per Cent Survival with 21 μM bisantrene (S1-B1-20 cells; drug 80 μM): 4 ± 0 Per Cent | Per Cent Survival Alone (S1-B1-20 cells; drug 80 μM alone): 4 ± 0 Per Cent | Difference Score (S1-B1-20 cells; drug 80 μM): 0 | reversal of resistance in P-gp positive S1-B1-20 cells (in words) (S1-B1-20 cells; bisantrene-selected): reversible
